In PubChem BioAssay AID330 (DTP/NCI, 2004):
“And” between values parts separate entries of the source, which are not always exact repeats. Identical values can stand only once. Inconclusive results and toxic doses are left out. The calls were made as follows: active = survival T/C of 150% or more; inactive = T/C below 125% in these data. Peptide text beside a SMILES is read from it. * marks the point of attachment. Boc = CC(C)(C)OC(=O)*; NHNH2 = NN*

Test system: P388 leukemia ip, CD2F1 mice, survival T/C
Experiment: NCI In Vivo Anticancer Drug Screen. Data for tumor model P388 Leukemia (intraperitoneal) in CD2F1 (CDF1) mice
Conditions: endpoint: median survival time, higher = longer survival
Procedure, shortened: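 Mice carrying the transplanted tumor received test compound or vehicle. Survival was recorded in each group, and the value is the treated-group measurement divided by that of the vehicle-treated control group.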

[1] = dose: 60.0 mg/kg/injection, schedule: Q01DX005 (ip), vehicle: saline with Tween-80
[2] = dose: 120.0 mg/kg/injection, schedule: Q01DX005 (ip), vehicle: saline with Tween-80
[3] = dose: 240.0 mg/kg/injection, schedule: Q01DX005 (ip), vehicle: saline with Tween-80
[4] = dose: 50.0 mg/kg/injection, schedule: Q01DX009 (ip), vehicle: saline
[5] = dose: 100.0 mg/kg/injection, schedule: Q01DX009 (ip), vehicle: saline
[6] = dose: 200.0 mg/kg/injection, schedule: Q01DX009 (ip), vehicle: saline
[7] = dose: 7.5 mg/kg/injection, schedule: Q01DX005 (ip), vehicle: saline
[8] = dose: 15.0 mg/kg/injection, schedule: Q01DX005 (ip), vehicle: saline
[9] = dose: 30.0 mg/kg/injection, schedule: Q01DX005 (ip), vehicle: saline
[10] = dose: 50.0 mg/kg/injection, schedule: Q01DX009 (ip), vehicle: Klucel (hydroxypropylcellulose) (HPC)
[11] = dose: 100.0 mg/kg/injection, schedule: Q01DX009 (ip), vehicle: Klucel (hydroxypropylcellulose) (HPC)
[12] = dose: 200.0 mg/kg/injection, schedule: Q01DX009 (ip), vehicle: Klucel (hydroxypropylcellulose) (HPC)
[13] = dose: 50.0 mg/kg/injection, schedule: Q01DX005 (ip), vehicle: Klucel (hydroxypropylcellulose) (HPC)
[14] = dose: 100.0 mg/kg/injection, schedule: Q01DX005 (ip), vehicle: Klucel (hydroxypropylcellulose) (HPC)
[15] = dose: 200.0 mg/kg/injection, schedule: Q01DX005 (ip), vehicle: Klucel (hydroxypropylcellulose) (HPC)
[16] = dose: 60.0 mg/kg/injection, schedule: Q01DX005 (ip), vehicle: saline

Measured: T/C

CC(C)(C)OC(=O)NC(Cc1c[nH]c2ccccc12)C(=O)NC(Cc1c[nH]c2ccccc12)C(=O)NN (stereo not drawn) (Boc-Trp-Trp-NHNH2; configuration not given here)
inactive: dose: 12.5 mg/kg/injection, schedule: Q01DX009 (ip), vehicle: other 94 % of control | dose: 25.0 mg/kg/injection, schedule: Q01DX009 (ip), vehicle: other 94 % of control | dose: 50.0 mg/kg/injection, schedule: Q01DX009 (ip), vehicle: other 91 % of control | dose: 100.0 mg/kg/injection, schedule: Q01DX009 (ip), vehicle: other 91 % of control | dose: 200.0 mg/kg/injection, schedule: Q01DX009 (ip), vehicle: other 107 % of control

N#Cc1c2c(c(=O)n3c1[nH]c1ccccc13)CCCC2
inactive: [1] 93 % of control | [2] 94 % of control | [3] 90 % of control

CCN(CC)Cc1cc(C)c(O)c(N=Nc2ccc([N+](=O)[O-])cc2)c1C
inactive: dose: 100.0 mg/kg/injection, schedule: Q04DX002 (ip), vehicle: saline with Tween-80 101 % of control | dose: 200.0 mg/kg/injection, schedule: Q04DX002 (ip), vehicle: saline with Tween-80 99 % of control | dose: 400.0 mg/kg/injection, schedule: Q04DX002 (ip), vehicle: saline with Tween-80 97 % of control

O=C(Nc1ccc(CCO)cc1)c1cccc(F)c1
inactive: [1] 93 % of control | [2] 86 % of control | [3] 86 % of control

Cn1nnnc1SCC1=C(C(=O)O)N2C(=O)C(NC(=O)C(OC=O)c3ccccc3)C2SC1 (stereo not drawn)
inactive: [4] 100 % of control | [5] 97 % of control | [6] 104 % of control

CCOC(=O)N(C)N=NC
inactive: dose: 3.75 mg/kg/injection, schedule: Q01DX005 (ip), vehicle: saline 100 % of control | [7] 107 % of control and 109 % of control | [8] 105 % of control | [9] 120 % of control

Cc1ccc2nc(CC(=O)c3ccccc3)c(CC(=O)c3ccccc3)nc2c1
inactive: [1] 93 % of control | [2] 94 % of control | [3] 96 % of control

CCCCN1C(=O)C2C3C=CC(C2C1=O)C1C2C(=O)N(CCCC)C(=O)C2C31 (stereo not drawn)
inactive: dose: 100.0 mg/kg/injection, schedule: Q01DX001 (ip), vehicle: saline with Tween-80 93 % of control | dose: 200.0 mg/kg/injection, schedule: Q01DX001 (ip), vehicle: saline with Tween-80 93 % of control | dose: 400.0 mg/kg/injection, schedule: Q01DX001 (ip), vehicle: saline with Tween-80 90 % of control

O=S(=O)(c1ccc(NC(=S)NC23CC4CC(CC(C4)C2)C3)cc1)N1CCCCC1
inactive: [10] 88 % of control | [11] 93 % of control | [12] 94 % of control

Clc1nc2nc3n(c2nc1Cl)CCC3(Br)Br
inactive: [1] 97 % of control | [2] 109 % of control | [3] 103 % of control

C=C1C(=O)OC2C=C(CCC(C)=O)C(C)C(OC(C)=O)CC12 (stereo not drawn)
inactive: dose: 25.0 mg/kg/injection, schedule: Q01DX009 (ip), vehicle: Klucel (hydroxypropylcellulose) (HPC) 100 % of control | [10] 102 % of control | [11] 94 % of control | [12] 94 % of control

CN1CC(=O)NC2C=CN(Cc3c(Cl)cccc3Cl)C=C2C1=O (stereo not drawn)
inactive: [1] 89 % of control and 90 % of control | [2] 88 % of control | [3] 87 % of control and 90 % of control

CCN(CC)CCSc1c2ccccc2nc2ccccc12
inactive: dose: 3.75 mg/kg/injection, schedule: Q01DX005 (ip), vehicle: saline with Tween-80 110 % of control | dose: 7.5 mg/kg/injection, schedule: Q01DX005 (ip), vehicle: saline with Tween-80 114 % of control | dose: 15.0 mg/kg/injection, schedule: Q01DX005 (ip), vehicle: saline with Tween-80 107 % of control

O=C1N[C@@H]2C(=C[C@H](O)[C@@H](O)[C@H]2O)c2cc3c(c(O)c21)OCO3
inactive: dose: 0.62 mg/kg/injection, schedule: Q01DX009 (ip), vehicle: saline with Tween-80 110 % of control | dose: 5.0 mg/kg/injection, schedule: Q01DX009 (ip), vehicle: saline with Tween-80 100 % of control | dose: 10.0 mg/kg/injection, schedule: Q01DX009 (ip), vehicle: saline with Tween-80 87 % of control

Nc1ccc(N=Nc2cccc3c(N=Nc4ccc(N)nc4N)cccc23)c(N)n1
inactive: dose: 25.0 mg/kg/injection, schedule: Q01DX005 (ip), vehicle: Klucel (hydroxypropylcellulose) (HPC) 97 % of control | [13] 100 % of control | [14] 98 % of control | [15] 93 % of control

CC1CN(C(=O)c2ccccc2)CC/C1=N\O (stereo not drawn)
inactive: dose: 50.0 mg/kg/injection, schedule: Q01DX005 (ip), vehicle: saline with Tween-80 97 % of control | dose: 100.0 mg/kg/injection, schedule: Q01DX005 (ip), vehicle: saline with Tween-80 93 % of control | dose: 200.0 mg/kg/injection, schedule: Q01DX005 (ip), vehicle: saline with Tween-80 101 % of control

NCCSCC(N)C(=O)O (stereo not drawn)
inactive: dose: 25.0 mg/kg/injection, schedule: Q01DX009 (ip), vehicle: saline 102 % of control | [4] 103 % of control | [5] 99 % of control | [6] 109 % of control

Nc1nc(-c2ccccn2)cc2c(Cl)cccc12
inactive: [1] 86 % of control | [2] 115 % of control | [3] 97 % of control

CCN(CC)c1ccc2nc3ccc(=[N+](CC)CC)cc-3oc2c1
inactive: [7] 105 % of control | [8] 109 % of control

COc1cc(CNc2cccc(F)c2)cc(OC)c1OC
inactive: [13] 100 % of control | [14] 110 % of control | [15] 89 % of control

O=S(=O)(c1cnccc1N1CCN(CCO)CC1)N1CCCCC1
inactive: [4] 101 % of control | [5] 105 % of control

COC1=C(OC)C(=O)C(C/C=C(\C)CC/C=C(\C)CC/C=C(\C)CC/C=C(\C)CC/C=C(\C)CC/C=C(\C)CC/C=C(\C)CC/C=C(\C)CC/C=C(\C)CCC=C(C)C)=C(C)C1=O
inactive: dose: 3.13 mg/kg/injection, schedule: Q01DX009 (ip), vehicle: saline with Tween-80 90 % of control and 96 % of control | dose: 6.25 mg/kg/injection, schedule: Q01DX009 (ip), vehicle: saline with Tween-80 86 % of control and 93 % of control | dose: 12.5 mg/kg/injection, schedule: Q01DX009 (ip), vehicle: saline with Tween-80 96 % of control | dose: 25.0 mg/kg/injection, schedule: Q01DX009 (ip), vehicle: saline with Tween-80 86 % of control and 87 % of control | dose: 50.0 mg/kg/injection, schedule: Q01DX009 (ip), vehicle: saline with Tween-80 90 % of control | dose: 100.0 mg/kg/injection, schedule: Q01DX009 (ip), vehicle: saline with Tween-80 86 % of control and 87 % of control

CC(C)=CCSC(N)N
inactive: [7] 99 % of control | [8] 99 % of control | [9] 99 % of control | [16] 101 % of control

COc1nc(/C=C/c2ccccc2)c([N+](=O)[O-])c(OC)n1
inactive: dose: 100.0 mg/kg/injection, schedule: Q04DX003 (ip), vehicle: saline 103 % of control | dose: 200.0 mg/kg/injection, schedule: Q04DX003 (ip), vehicle: saline 103 % of control | dose: 400.0 mg/kg/injection, schedule: Q04DX003 (ip), vehicle: saline 100 % of control

Nc1nc(-c2cc(-c3cccs3)nc(N)n2)cc(-c2cccs2)n1
inactive: [16] 97 % of control | dose: 120.0 mg/kg/injection, schedule: Q01DX005 (ip), vehicle: saline 100 % of control

Nc1ccc(NCCC2CCCN3CCCCC23)c2c(=O)c3ccccc3sc12 (stereo not drawn)
inactive: dose: 32.5 mg/kg/injection, schedule: Q01DX005 (ip), vehicle: saline with Tween-80 100 % of control | dose: 65.0 mg/kg/injection, schedule: Q01DX005 (ip), vehicle: saline with Tween-80 100 % of control | dose: 80.0 mg/kg/injection, schedule: Q01DX005 (ip), vehicle: saline with Tween-80 95 % of control | dose: 130.0 mg/kg/injection, schedule: Q01DX005 (ip), vehicle: saline with Tween-80 101 % of control | dose: 160.0 mg/kg/injection, schedule: Q01DX005 (ip), vehicle: saline with Tween-80 104 % of control | dose: 260.0 mg/kg/injection, schedule: Q01DX005 (ip), vehicle: saline with Tween-80 109 % of control
